Test results taken from EP1169641B1, “PROTEOME MINING” (THE UNIVERSITY OF VIRGINIA PATENT FOUNDATION, priority 1999, dated 2000).

Biological target: T1, purified human ADE2 (Homo sapiens, UniProt P22234)
T1 sequence (P22234 1-425): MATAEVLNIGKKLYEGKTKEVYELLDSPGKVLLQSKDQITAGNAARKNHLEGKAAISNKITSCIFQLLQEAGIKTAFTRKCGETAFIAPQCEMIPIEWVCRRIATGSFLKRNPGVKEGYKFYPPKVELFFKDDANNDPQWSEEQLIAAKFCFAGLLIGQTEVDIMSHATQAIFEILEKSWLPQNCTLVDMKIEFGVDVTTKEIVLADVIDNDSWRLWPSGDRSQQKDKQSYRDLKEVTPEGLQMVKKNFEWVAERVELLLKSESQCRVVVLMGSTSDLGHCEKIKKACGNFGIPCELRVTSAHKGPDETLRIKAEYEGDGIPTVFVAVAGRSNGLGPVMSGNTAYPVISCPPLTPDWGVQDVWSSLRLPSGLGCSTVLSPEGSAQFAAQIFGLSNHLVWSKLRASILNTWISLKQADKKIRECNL
Experiment: Assay of purified ADE2 (apparent Ki)
Type: biochemical
Conditions: apparent Ki for ADE2, three separate experiments, read-out: Ki^-1
Protocol: All assays were performed against purified human ADE2. Results shown are from three separate experiments. Compounds that eluted HSP90 selectively had no effect of ADE2 activity in vitro at µM concentrations. […] Table 2. Determination of apparent Ki for ADE2 against GA structural analogs

Ki: 62.5 µM
SMILES: CO[C@H]1/C=C\C=C(/C)C(=O)NC2=CC(=O)C(NCCN(C)C)=C(C[C@@H](C)C[C@H](OC)[C@H](O)[C@@H](C)/C=C(\C)[C@@H]1OC(N)=O)C2=O [Inhibitor 707545]
